# Measurements from article PMC9304322, “Targeting retinoic acid receptor alpha-corepressor interaction activates chaperone-mediated autophagy and protects against retinal degeneration” (Nature Communications, 2022).
# “And” between values parts separate entries of the source, which are not always exact repeats. Identical values can stand only once.
# Tests used:
# [1] = system: CMA network components in NIH3T3 cells; assay: qPCR of CMA network components and CMA activation score;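 for AKT1 mRNA level: fold of untreated cells after 20 µM for 24 h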;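 for AKT2 mRNA level: fold of untreated cells after 20 µM for 24 h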;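 for CTSA mRNA level: fold of untreated cells after 20 µM for 24 h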;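 for HSC70 mRNA level: fold of untreated cells after 20 µM for 24 h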;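 for HSP40 mRNA level: fold of untreated cells after 20 µM for 24 h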;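 for HSP90AA1 mRNA level: fold of untreated cells after 20 µM for 24 h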;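 for HSP90AB1 mRNA level: fold of untreated cells after 20 µM for 24 h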;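 for LAMP2A mRNA level: fold of untreated cells after 20 µM for 24 h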;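 for NCOR1 mRNA level: fold of untreated cells after 20 µM for 24 h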;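 for NFATC1 mRNA level: fold of untreated cells after 20 µM for 24 h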;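 for NFE2L2 mRNA level: fold of untreated cells after 20 µM for 24 h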;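 for PHLPP1 mRNA level: fold of untreated cells after 20 µM for 24 h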;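 for RAB11A mRNA level: fold of untreated cells after 20 µM for 24 h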;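 for RAC1 mRNA level: fold of untreated cells after 20 µM for 24 h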;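 for RARa mRNA level: fold of untreated cells after 20 µM for 24 h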; format: cell-based, mouse; design: LAMP2A mRNA level / HSP90AB1 mRNA level / HSP40 mRNA level / RAC1 mRNA level / AKT1 mRNA level / AKT2 mRNA level / CTSA mRNA level / NFATC1 mRNA level / HSC70 mRNA level / NCOR1 mRNA level / NFE2L2 mRNA level / RAB11A mRNA level / RARa mRNA level / HSP90AA1 mRNA level / EEF1A1 mRNA level / RICTOR mRNA level: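 fold of untreated cells after 20 µM for 24 h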; key to CMA activation score: weighted (LAMP-2A ×2), directed (±1) average of CMA network expression; conditions: for AKT1 mRNA level / AKT2 mRNA level / CTSA mRNA level / EEF1A1 mRNA level / HSC70 mRNA level / HSP40 mRNA level / HSP90AA1 mRNA level / HSP90AB1 mRNA level / LAMP2A mRNA level / NCOR1 mRNA level / NFATC1 mRNA level / NFE2L2 mRNA level / PHLPP1 mRNA level / RAB11A mRNA level / RAC1 mRNA level / RARa mRNA level / RICTOR mRNA level: Fig. 2d (left), one sample t test; for AKT1 mRNA level / AKT2 mRNA level / CTSA mRNA level / EEF1A1 mRNA level / HSC70 mRNA level / HSP40 mRNA level / HSP90AA1 mRNA level / HSP90AB1 mRNA level / LAMP2A mRNA level / NCOR1 mRNA level / NFATC1 mRNA level / NFE2L2 mRNA level / PHLPP1 mRNA level / RAB11A mRNA level / RAC1 mRNA level / RARa mRNA level / RICTOR mRNA level / CMA activation score: individual replicate values; for CMA activation score: Fig. 2d (right); for predicted CMA score compared to AR7: NIH3T3, 20μM for 24 h
# Method: RNA was extracted from individual retinas or tissue sections (brain, liver). Total RNA from retinas was extracted using TRIzol Reagent (Invitrogen, # 15596-018), and reverse transcription was performed using the High-Capacity cDNA Reverse Transcription Kit (Applied Biosystems, # 4374966) according to the manufacturer’s instructions. Quantitative real-time PCR was performed in a Light Cycler 480 Instrument (Roche) with Taqman LightCycler 480 probes Master Mix (Roche, #4887301001) using Taqman assays (Life Technologies). For cells in culture, RNA was extracted using RNeasy Plus Mini Kit (Qiagen, #74034), and reverse transcription was performed using Superscript III (Invitrogen, #18080051). Quantitative RT-PCR analysis were performed using Power SYBR Green PCR Master Mix (Applied Biosystems, #4368708) on a StepOne Plus Real-Time PCR System (Applied Biosystems). Mm01184405_m1 probe (Thermofisher) was used for rhodopsin and the sequence of all the other probes used for qPCR is included in Supplementary Table 2.
# CMA index[14] was calculated using data set from[23]–[25]. Briefly, each element of the CMA network[13] has attributed a weight. As LAMP-2A is the rate-limiting component of CMA, it was given a weight of 2. Every other element received a weight of 1. Then, every element was attributed direction score that is +1 or −1 based on the known effect of a given element on CMA activity. The score was then calculated as the weighted/ directed average of expression counts of every element of the CMA network.
# [2] = system: NIH3T3 cells stably expressing the mCherry-GFP-LC3 reporter; assay: Macroautophagy activity, mCherry-GFP-LC3 reporter; format: cell-based, mouse; conditions: for effect on macroautophagy: NIH3T3, MRT-sensitive proteolysis, LC3-II flux, mCherry-GFP-LC3 reporter
# Method: Cells were transduced with a lentiviral vector expressing mCherry-GFP-LC3[35], fixed and flux determined as the conversion of dual fluorescence puncta (autophagosomes) into only red fluorescent puncta (autolysosomes). Flux was also measured by immunoblot for LC3 in cells incubated for 6 h with 20 mM NH4Cl/100 μM leupeptin, by discounting the intensity of LC3 in non-treated cells from that in cells treated with the inhibitors.
# [3] = c0 = 2 (axis unlabelled; ANOVA calls row factor Time)
smiles,measurement,setting,value
CC(=O)Nc1ccc(C2=Nc3ccc(Cl)cc3OC2)cc1 [CA77],AKT1 mRNA level,[1],1.86 and 1.18 and 1.20 and 0.75 and 0.97 and 1.87 and 1.39
same,AKT2 mRNA level,[1],1.39 and 1.17 and 1.12 and 0.66 and 1.01 and 1.53 and 1.20
same,CTSA mRNA level,[1],1.67 and 1.46 and 1.22 and 0.88 and 1.08 and 1.45
same,EEF1A1 mRNA level,[1],1.15 and 1.98 and 1.39 and 1.19 and 1.55
same,HSC70 mRNA level,[1],1.44 and 1.49 and 1.28 and 0.82 and 1.24 and 1.57
same,HSP40 mRNA level,[1],0.73 and 0.99 and 0.82 and 0.53 and 0.77 and 1.06
same,HSP90AA1 mRNA level,[1],1.50 and 0.94 and 0.92 and 0.76 and 0.78 and 0.87 and 0.90
same,HSP90AB1 mRNA level,[1],1.21 and 0.89 and 0.79 and 0.62 and 0.81 and 0.82 and 0.83
same,LAMP2A mRNA level,[1],1.32 and 1.55 and 1.43 and 1.87 and 2.34 and 2.75 and 2.33
same,NCOR1 mRNA level,[1],2.35 and 1.24 and 0.55 and 0.97 and 2.06 and 1.85
same,NFATC1 mRNA level,[1],2.10 and 1.29 and 1.23 and 0.50 and 0.73 and 1.05 and 1.18
same,NFE2L2 mRNA level,[1],1.29 and 1.15 and 1.04 and 0.89 and 0.77 and 1.26
same,PHLPP1 mRNA level,[1],2.13 and 1.55 and 1.38 and 2.29 and 1.20 and 1.48 and 1.51
same,RAB11A mRNA level,[1],1.15 and 0.97 and 0.81 and 0.59 and 0.79 and 0.89 and 1.07
same,RAC1 mRNA level,[1],0.89 and 1.51 and 1.36 and 1.27 and 1.10 and 1.63 and 1.34
same,RARa mRNA level,[1],1.23 and 0.87 and 0.82 and 0.27 and 1.06 and 2.06 and 1.10
same,RICTOR mRNA level,[1],0.96 and 1.28 and 0.65 and 0.74 and 1.53 and 1.63
same,CMA activation score,[1],0.1487 and -0.2323 and 0.1868 and 0.1591
same,predicted CMA score compared to AR7,[1],higher
same,effect on macroautophagy,[2],did not have the inhibitory effect on macroautophagy
same,APG (Fig. S3e),[2]; [3],3.899
same,AUT (Fig. S3e),[2]; [3],0.5811
same,AV (Fig. S3e),[2]; [3],4.481
same,APG (Fig. S3e),[2]; c0 = 5 (axis unlabelled),3.275
same,AUT (Fig. S3e),[2]; c0 = 5 (axis unlabelled),0.7542
same,AV (Fig. S3e),[2]; c0 = 5 (axis unlabelled),4.029
same,APG (Fig. S3e),[2]; c0 = 10 (axis unlabelled),2.43
same,AUT (Fig. S3e),[2]; c0 = 10 (axis unlabelled),3.694
same,AV (Fig. S3e),[2]; c0 = 10 (axis unlabelled),6.1244
same,APG (Fig. S3e),[2]; c0 = 15 (axis unlabelled),2.828
same,AUT (Fig. S3e),[2]; c0 = 15 (axis unlabelled),3.073
same,AV (Fig. S3e),[2]; c0 = 15 (axis unlabelled),5.901
same,APG (Fig. S3e),[2]; c0 = 20 (axis unlabelled),2.044
same,AUT (Fig. S3e),[2]; c0 = 20 (axis unlabelled),3.746
same,AV (Fig. S3e),[2]; c0 = 20 (axis unlabelled),5.79
same,APG (Fig. S3e),[2]; c0 = 25 (axis unlabelled),2.063
same,AUT (Fig. S3e),[2]; c0 = 25 (axis unlabelled),4.0642
same,AV (Fig. S3e),[2]; c0 = 25 (axis unlabelled),6.127
same,APG (Fig. S3e),[2]; c0 = 30 (axis unlabelled),2.895
same,AUT (Fig. S3e),[2]; c0 = 30 (axis unlabelled),3.5777
same,AV (Fig. S3e),[2]; c0 = 30 (axis unlabelled),6.473
same,APG (Fig. S3e),[2]; c0 = 40 (axis unlabelled),2.857
same,AUT (Fig. S3e),[2]; c0 = 40 (axis unlabelled),3.822
same,AV (Fig. S3e),[2]; c0 = 40 (axis unlabelled),6.679
same,APG (Fig. S3e),[2]; c0 = 50 (axis unlabelled),4.838
same,AUT (Fig. S3e),[2]; c0 = 50 (axis unlabelled),2.082
same,AV (Fig. S3e),[2]; c0 = 50 (axis unlabelled),6.9193
Clc1ccc2c(c1)OCC(c1ccc(-c3ccccc3)cc1)=N2 [CA39],AKT1 mRNA level,[1],1.27 and 1.30 and 1.45 and 1.16 and 1.03 and 1.84 and 1.28
same,AKT2 mRNA level,[1],1.32 and 1.30 and 1.24 and 1.01 and 1.08 and 1.88 and 1.04
same,CTSA mRNA level,[1],1.42 and 1.82 and 1.76 and 1.16 and 1.21 and 1.47 and 1.18
same,EEF1A1 mRNA level,[1],1.63 and 1.19 and 0.99 and 1.36 and 0.64 and 1.12
same,HSC70 mRNA level,[1],1.22 and 1.61 and 1.44 and 1.21 and 1.29 and 2.10 and 1.42
same,HSP40 mRNA level,[1],1.09 and 1.23 and 1.16 and 0.96 and 0.74 and 1.03
same,HSP90AA1 mRNA level,[1],1.17 and 1.01 and 0.95 and 0.86 and 0.74 and 0.72
same,HSP90AB1 mRNA level,[1],1.00 and 0.99 and 0.98 and 1.04 and 0.83 and 0.75
same,LAMP2A mRNA level,[1],1.75 and 1.44 and 1.56 and 1.42 and 1.32 and 1.48
same,NCOR1 mRNA level,[1],1.09 and 1.39 and 1.22 and 0.82 and 0.71 and 0.95 and 0.89
same,NFATC1 mRNA level,[1],1.14 and 1.53 and 1.30 and 0.80 and 1.03 and 1.25 and 1.28
same,NFE2L2 mRNA level,[1],0.96 and 1.16 and 1.02 and 0.72 and 0.80 and 1.15 and 1.10
same,PHLPP1 mRNA level,[1],1.27 and 1.65 and 1.69 and 3.21 and 1.20 and 1.48 and 1.51
same,RAB11A mRNA level,[1],1.05 and 1.19 and 0.95 and 0.84 and 1.00 and 1.21 and 1.07
same,RAC1 mRNA level,[1],1.38 and 1.77 and 1.43 and 1.78 and 1.31 and 1.54 and 1.42
same,RARa mRNA level,[1],0.55 and 1.08 and 1.05 and 0.89 and 0.84 and 0.93 and 0.88
same,RICTOR mRNA level,[1],1.22 and 1.28 and 0.83 and 0.86 and 1.60 and 1.10
same,CMA activation score,[1],0.6107 and 0.1532 and -0.08737 and 0.08765
same,predicted CMA score compared to AR7,[1],higher
same,effect on macroautophagy,[2],did not have the inhibitory effect on macroautophagy
same,APG (Fig. S3e),[2]; [3],3.494
same,AUT (Fig. S3e),[2]; [3],0.8582
same,AV (Fig. S3e),[2]; [3],4.352
same,APG (Fig. S3e),[2]; c0 = 5 (axis unlabelled),2.288
same,AUT (Fig. S3e),[2]; c0 = 5 (axis unlabelled),1.522
same,AV (Fig. S3e),[2]; c0 = 5 (axis unlabelled),3.81
same,APG (Fig. S3e),[2]; c0 = 10 (axis unlabelled),2.801
same,AUT (Fig. S3e),[2]; c0 = 10 (axis unlabelled),1.622
same,AV (Fig. S3e),[2]; c0 = 10 (axis unlabelled),4.423
same,APG (Fig. S3e),[2]; c0 = 15 (axis unlabelled),3.21
same,AUT (Fig. S3e),[2]; c0 = 15 (axis unlabelled),1.42
same,AV (Fig. S3e),[2]; c0 = 15 (axis unlabelled),4.63
same,APG (Fig. S3e),[2]; c0 = 20 (axis unlabelled),2.614
same,AUT (Fig. S3e),[2]; c0 = 20 (axis unlabelled),2.2085
same,AV (Fig. S3e),[2]; c0 = 20 (axis unlabelled),4.823
same,APG (Fig. S3e),[2]; c0 = 25 (axis unlabelled),2.9327
same,AUT (Fig. S3e),[2]; c0 = 25 (axis unlabelled),2.406
same,AV (Fig. S3e),[2]; c0 = 25 (axis unlabelled),5.339
same,APG (Fig. S3e),[2]; c0 = 30 (axis unlabelled),1.904
same,AUT (Fig. S3e),[2]; c0 = 30 (axis unlabelled),2.071
same,AV (Fig. S3e),[2]; c0 = 30 (axis unlabelled),3.975
same,APG (Fig. S3e),[2]; c0 = 40 (axis unlabelled),3.037
same,AUT (Fig. S3e),[2]; c0 = 40 (axis unlabelled),2.167
same,AV (Fig. S3e),[2]; c0 = 40 (axis unlabelled),5.204
same,APG (Fig. S3e),[2]; c0 = 50 (axis unlabelled),3.658
same,AUT (Fig. S3e),[2]; c0 = 50 (axis unlabelled),0.5267
same,AV (Fig. S3e),[2]; c0 = 50 (axis unlabelled),4.185
